Laboratory results taken from the SangsterLogP compilation.

| logP | SMILES |
| --- | --- |
| 2.66 | COC1(NC(=O)C2SC(=C(C)C(=O)O)S2)C(=O)N2C(C(=O)O)=C(CSC3=NN=NN(C)C3)CSC21 (stereo unspecified) |
| 2.6 | COC1(NC(=O)C2SC(=C(SC)C(=O)O)S2)C(=O)N2C(C(=O)O)=C(CSc3nnnn3C)CSC21 (stereo unspecified) |
| 1.25 | COC1(NC(=O)C2SC(=C(C(=O)O)S(N)(=O)=O)S2)C(=O)N2C(C(=O)O)=C(CSc3nnnn3C)CSC21 (stereo unspecified) |
| 2.98 | COC1(NC(=O)C2SC(C(C(=O)O)C(=O)c3ccccc3)S2)C(=O)N2C(C(=O)O)=C(CSc3nnnn3C)CSC21 (stereo unspecified) |
| 1.43 | COC1(NC(=O)CSc2snc(O)c2C(=O)O)C(=O)N2C(C(=O)O)=C(CSc3nnnn3C)CSC21 (stereo unspecified) |
| 1.73 | COC1(NC(=O)C2SC(=C(C#N)C(=O)O)S2)C(=O)N2C(C(=O)O)=C(CSc3nnnn3C)CSC21 (stereo unspecified) |
| 2.19 | COC1(NC(=O)C2SC(=CC(=O)O)S2)C(=O)N2C(C(=O)O)=C(CSc3nnnn3C)CSC21 (stereo unspecified) |
| 2.86 | CCSC(C(=O)O)=C1SC(C(=O)NC2(OC)C(=O)N3C(C(=O)O)=C(CSc4nnnn4C)CSC32)S1 (stereo unspecified) |
| 1.82 | CNC(=O)C(C(=O)O)=C1SC(C(=O)NC2(OC)C(=O)N3C(C(=O)O)=C(CSc4nnnn4C)CSC32)S1 (stereo unspecified) |
| 2.01 | COC1(NC(=O)C2SC(C(C(=O)O)C(=O)N(C)C)S2)C(=O)N2C(C(=O)O)=C(CSc3nnnn3C)CSC21 (stereo unspecified) |
| 2 | COC(C(=O)O)=C1SC(C(=O)NC2(OC)C(=O)N3C(C(=O)O)=C(CSc4nnnn4C)CSC32)S1 (stereo unspecified) |
